In PubChem BioAssay (NCI) one finds TGI data, which are given here for 14 molecules.

Test systems include SNB-75 CNS; SK-MEL-28 melanoma; UACC-257 melanoma; DU-145 prostate; NCI-H23 lung; SK-MEL-5 melanoma; SF-268 CNS; HOP-92 NSCLC; TK-10 renal; CAKI-1 renal.
Holding throughout (assay): NCI tumour cell line growth inhibition, 48 h

Molecules are shown by their SMILES.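 Cultured in 96-well plates, cells were exposed to test compound for 48 hours across five concentrations. The concentration for full growth arrest is given as TGI.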 Bounds are passed on as bounds.

On to `Cc1ccc2c3ccc4c(c3n(C)c2c1)C(=O)C=CC4=O`, for which the TGI in the assay on SNB-75 CNS, in the assay on SK-MEL-28 melanoma, in the assay with UACC-257 melanoma, in the assay with DU-145 prostate, in the assay on NCI-H23 lung and in the assay on SK-MEL-5 melanoma was over 10 µM in each case. The TGI with SF-268 CNS is over 10 µM; in the assay with HOP-92 NSCLC it was 7.26 µM; in the assay on TK-10 renal it was over 10 µM; with CAKI-1 renal it was over 10 µM.
Regarding `Cc1ccc2c(=O)c3c(O)c4c(cc3n(C)c2c1)OC(C)(C)C=C4`, the TGI in the assay with SNB-75 CNS, in the assay with SK-MEL-28 melanoma, in the assay with UACC-257 melanoma, in the assay with DU-145 prostate, with NCI-H23 lung and in the assay with SK-MEL-5 melanoma was over 10 µM each time. For the same molecule, the TGI in the assay on SF-268 CNS, in the assay with HOP-92 NSCLC, with TK-10 renal and in the assay with CAKI-1 renal was over 10 µM each time.
As to `CC(C)=CCC/C(C)=C/CCC1(C)C2COC(=O)C21` (centres undefined), the TGI with SK-MEL-28 melanoma is over 100 µM; in the assay with UACC-257 melanoma it was over 100 µM; in the assay with DU-145 prostate, over 100 µM; in the assay on NCI-H23 lung, over 100 µM; in the assay on SK-MEL-5 melanoma it was 91.7 µM; in the assay with SF-268 CNS it was over 100 µM. Also, the results for the TGI with HOP-92 NSCLC, with TK-10 renal and with CAKI-1 renal were 87 µM, over 100 µM and over 100 µM, respectively.
For `COC(=O)[C@]12CCC(=O)N1[C@H](C(=O)O)Cc1c2[nH]c2ccccc12`, the TGI with SNB-75 CNS, in the assay with SK-MEL-28 melanoma, in the assay with UACC-257 melanoma, in the assay with DU-145 prostate, in the assay on NCI-H23 lung and in the assay on SK-MEL-5 melanoma was over 100 µM each time. The TGI in the assay on SF-268 CNS, in the assay on HOP-92 NSCLC, in the assay on TK-10 renal and with CAKI-1 renal was over 100 µM in each case.
On to `Cc1ccc(Oc2cc(C)ccc2P(=O)(O)O)cc1`, for which the TGI in the assay on SNB-75 CNS, with SK-MEL-28 melanoma, with UACC-257 melanoma, in the assay with DU-145 prostate, in the assay on NCI-H23 lung and in the assay with SK-MEL-5 melanoma was over 100 µM in each case. In addition, the TGI with SF-268 CNS, in the assay on HOP-92 NSCLC, with TK-10 renal and in the assay on CAKI-1 renal was over 100 µM in each case.
As to `C=C(Cl)C(=C)CCC(Cl)C(C)(C)Cl` (centres undefined), the TGI in the assay on SNB-75 CNS, in the assay with SK-MEL-28 melanoma, in the assay with UACC-257 melanoma, with DU-145 prostate, in the assay on NCI-H23 lung and in the assay on SK-MEL-5 melanoma was over 100 µM in each case. Besides, the TGI in the assay with SF-268 CNS, in the assay on HOP-92 NSCLC, in the assay on TK-10 renal and with CAKI-1 renal was over 100 µM in each case.
Take `CNc1ccc([N+](=O)[O-])cc1C(=O)N1CCC[C@H]1CO`: the TGI in the assay with SNB-75 CNS, in the assay with SK-MEL-28 melanoma, with UACC-257 melanoma, with DU-145 prostate, with NCI-H23 lung and with SK-MEL-5 melanoma was over 100 µM each time. Further, the TGI in the assay on SF-268 CNS, in the assay with HOP-92 NSCLC, with TK-10 renal and in the assay on CAKI-1 renal was over 100 µM in each case.
On to `CN(C)CCCN1C(=O)N(CCCN(C)C)c2c3cc(O)ccc3nc3c([N+](=O)[O-])ccc1c23`, for which the TGI was over 100 µM with SNB-75 CNS; over 100 µM with SK-MEL-28 melanoma; over 100 µM in the assay with UACC-257 melanoma; 64 µM in the assay with DU-145 prostate; 48 µM with NCI-H23 lung; 30.4 µM in the assay with SK-MEL-5 melanoma. In addition, the TGI was 26.3 µM in the assay on SF-268 CNS, 36.7 µM with HOP-92 NSCLC, over 100 µM in the assay with TK-10 renal and 78.2 µM in the assay on CAKI-1 renal.
As for `CCOC(=O)c1c(C)n(CCN2CCN(C)CC2)c2ccc(OC)cc12`, the TGI in the assay on SNB-75 CNS was over 100 µM; in the assay on SK-MEL-28 melanoma it was 32 µM; in the assay on UACC-257 melanoma it was 31.1 µM; with DU-145 prostate, over 100 µM; in the assay on NCI-H23 lung, over 100 µM; with SK-MEL-5 melanoma, 30.8 µM. Also, the TGI was over 100 µM with SF-268 CNS, 80.5 µM with HOP-92 NSCLC, over 100 µM in the assay on TK-10 renal and over 100 µM in the assay with CAKI-1 renal.
For `CCCCN=C(OC1C=CCCC1)SC` (centres undefined), the TGI with SNB-75 CNS, in the assay with SK-MEL-28 melanoma, with UACC-257 melanoma, in the assay with DU-145 prostate, in the assay on NCI-H23 lung and in the assay on SK-MEL-5 melanoma was over 100 µM in each case. Further, the TGI with SF-268 CNS, with HOP-92 NSCLC and in the assay on TK-10 renal was over 100 µM in each case.
Take `CCn1c2ccccc2c2cc(NC(=O)c3c(C)[nH]c(=O)[nH]c3=S)ccc21`: the TGI in the assay with SNB-75 CNS, in the assay on SK-MEL-28 melanoma, with UACC-257 melanoma, in the assay on DU-145 prostate, with NCI-H23 lung and with SK-MEL-5 melanoma was over 100 µM throughout. The TGI with HOP-92 NSCLC, with TK-10 renal and with CAKI-1 renal was over 100 µM in each case.
Consider `C=CC(=O)N1C/C(=C\c2ccc(F)cc2)C(=O)/C(=C/c2ccc(F)cc2)C1`, for which the TGI was found to be 1.94 µM in the assay with SNB-75 CNS; 6.05 µM in the assay on UACC-257 melanoma; 13.5 µM with DU-145 prostate; 3.32 µM with NCI-H23 lung; 3.35 µM with SK-MEL-5 melanoma; 0.622 µM with SF-268 CNS. Also, the figures for the TGI with HOP-92 NSCLC, in the assay on TK-10 renal and in the assay on CAKI-1 renal were 8.62 µM, 2.84 µM and 1.7 µM, respectively.
For the molecule `O=c1oc2ccccc2cc1-c1nc2ccccc2s1`, the TGI was 17.4 µM with SNB-75 CNS; over 66 µM with SK-MEL-28 melanoma; 43.7 µM with DU-145 prostate; 39.4 µM with NCI-H23 lung; over 75.1 µM in the assay with SK-MEL-5 melanoma; 25.2 µM with SF-268 CNS. The TGI in the assay on HOP-92 NSCLC came out at 22.3 µM; in the assay on TK-10 renal, 33.5 µM; in the assay with CAKI-1 renal, 15.6 µM.
On to `C=C1C[C@]23CC[C@@H]4C(CO)(CO)CC(=O)C[C@]4(C)[C@@H]2C(O)C[C@H]1C3` (some centres undefined), for which the TGI in the assay with SNB-75 CNS, in the assay with SK-MEL-28 melanoma, with UACC-257 melanoma, in the assay with DU-145 prostate, with NCI-H23 lung and with SF-268 CNS was over 100 µM in each case. Further, the TGI in the assay on HOP-92 NSCLC, with TK-10 renal and in the assay on CAKI-1 renal was over 100 µM in each case.
